This is an account of results in US6492353B1, “1,3-dihydroxy-20,20-cycloalkyl-vitamin D3analogs” (Syntex LLC, priority 1997, dated 2002).

pIC50: −log10 of the molar value. Values joined by “and” are separate entries in the source; they are usually repeats but may differ in a detail not shown here. Equal entries are not always repeated.

Data set [1] has as its system ovariectomized (Ovx) rats. In words: Bone anabolism in the ovariectomized rat. The class given is in vivo. Set-up: Urine Calcium/Creatinine (6th Week): unit not given here. The note with it: for Whole Femur BMD: weeks 3-6 post-ovariectomy. An excerpt:
Three month old rats are ovariectomized (Ovx) and administered either 1,25-dihydroxy vitamin D3 (vit. D in Table) or one of the compounds of the present invention once a day by mouth starting at 3 weeks post-ovariectomy and continuing until final sacrifice at 6 weeks postovariectomy. Control groups, both sham (rats that were not ovariectomized) and Ovx, received vehicle only. Blood and urine samples were collected twice, at 4 weeks post-ovariectomy and again at the 6 week mark and the amount of serum and urine calcium was determined. The final femoral calcium was determined upon sacrifice 6 weeks post-ovariectomy.
The bone mineral density of the right femur was determined by using a High Resolution Software Package on a QDR-1000W Bone Densitometer™ (Hologic, Walthan, Mass.). The animals were scanned by placing them on a scanning block in a supine position such that the right leg was perpendicular to the main body and the tibia was perpendicular to the femur. The increase in the bone mineral density and the amount of calcium in the urine and the serum for some of the compounds of this invention in this assay are given in the table below: […]

In a further data set the test system is MCF-7 cells. In words: Cell proliferation assay in MCF-7 breast cancer cells. Format: cell-based. The note with it: Homo sapiens, MCF7, 168 h; MCF-7, 7 days of culture with analog, Coulter count; read-out: IC50, concentration causing 50% reduction in MCF-7 cell growth in culture. Here is the method:
MCF-7 cells are human mammary carcinoma cells that are positive for estrogen receptors. The potential activity of vitamin D3 analogs against breast cancer was assessed from inhibition of proliferation of MCF-7 cells in culture.
MCF-7 cells were plated at 9000 cells/well in 24-well plates and incubated at 37° C. in 5% CO2/95% air in Dulbecco's Modified Eagle Medium containing 10% fetal bovine serum, 700 nM insulin, 2 mM glutarnine, 0.1 mM MEM non-essential amino acids and 1 mM sodium pyruvate. Stock solutions of vitamin D3 analogs were prepared at a concentration of 10 mM in absolute ethanol and stored at −20° C. under argon. Four days after plating, the number of MCF-7 were counted by removing the medium in 8 wells, rinsing the cells with 0.5 ml PBS without Ca/Mg and then incubating the cells with 0.3 ml of trypsin-EDTA. After 15 min., the trypsinization was stopped by adding 0.3 ml of medium. 0.2 ml aliquot was transferred from each well into dilu-vials containing 10 ml isoton and the number of cells were counted on Coulter Counter™ (Coulter, Miami, Fla.).
MCF-7 cells in the remaining wells were refed with either control medium or medium containing varying concentrations of the vitamin D3 analog. After a further 7 days of culture, the number of MCF-7 cells in each well was assessed by removing the medium, rinsing the cells with 0.5 ml PBS without Ca/Mg and then incubating the cells with 0.5 ml of trypsin-EDTA for 15 min. The trypsinization was stopped by adding 0.5 ml of medium and 0.1 ml aliquot from each well was transferred into dilu-vials containing 10 ml isoton and the number of cells were counted on Coulter Counter™.

A further data set relates to ZR-75 cells. In words: Cell proliferation assay in ZR-75 breast cancer cells (MTT). The class given is cell-based. As to conditions: Homo sapiens, ZR75, 240 h, ZR-75, 10 days of culture with analog, read-out: IC50, concentration corresponding to half-maximal reduction in 570 nm absorbance. As to the method: ZR-75 cells are human mammary carcinoma cells that are positive for estrogen receptors. The potential activity of vitamin D3 analogs against breast cancer was assessed from inhibition of proliferation of ZR-75 cells in culture.
ZR-75 cells were plated at 12,500 cells/well in 24-well plates and incubated at 37° C. in 5% CO2/95% air in RPMI medium containing 10% fetal bovine serum and 2 mM L-glutamine. Stock solutions of vitamin D3 analogs were prepared at a concentration of 10 mM in absolute ethanol and stored at −20° C. under argon. One day after plating, ZR-75 cells were refed with either control medium or medium containing varying concentrations of the vitamin D3 analog.

Data set [2] has as its system rats with secondary hyperparathyroidism due to renal failure. In words: Secondary hyperparathyroidism in the rat renal insufficiency model (7/8 nephrectomy). Format: in vivo. As to conditions: 7/8 nephrectomized rats, 0.1 μg/kg/day oral, seven days; for PTH T=1-T=0: change in serum PTH; for Final Ca Levels: serum calcium. Here is the method:
Female sprague Dawley rats were anesthetized, their right kidney removed and 2-3 branches of the left renal artery were ligated to achieve 7/8 nephrectomy. They were placed on a high phosphorous diet (0.06% Ca and 0.08 phosphorous). Approximately 3-6 weeks after surgery, rats were bled to screen serum PTH levels and rats with PTH levels between 100-500 pg/ml were selected for the study.
There was a pre-bleed (T=0) and each group was dosed daily for seven days by oral […] with either the compound of Formula (I) (0.1 μg/kg/day), vehicle control or 1,25-(OH)2 vitamin D3 positive control. Compounds were predissolved in ethanol and diluted with vehicle (Miglyol 812) followed by evaporation of the ethanol.
After the last day of dosing, the animals were bled again (T=1) and sacrificed. Serum PTH assays were done with Nichols Institute Diagnostic Kit #40-2240. Serum calcium assays were done with Sigma Diagnostic Kit #587 with o-cresophthalein. Serum creatinine assays were done with Sigma Diagnostic Kit #1600-320 with ammonium molybdate.

Data set [3] relates to women with postmenopausal osteoporosis. The note with it: cited from earlier work.

Turning to `C=C1/C(=C\C=C2/CCC[C@]3(C)[C@@H](C4(CC#CC(O)(C(F)(F)F)C(F)(F)F)CC4)CC[C@@H]23)C[C@@H](O)C[C@@H]1O` [Cpd #3, 1,25-dihydroxy-23-yne-26,27-hexafluoro-20,21,28-cyclopropyl-cholecalciferol], in data set [1] (0.010 μg/kg/day by mouth), the “Serum Calcium (6th Week)” value is 10.25 mg/dL, the “Urine Calcium/Creatinine (6th Week)” value amounted to 0.83 and the Whole Femur BMD amounted to 0.24 g/cm². In addition, the pIC50 in the data set with MCF-7 cells is 10.52. The pIC50 in the data set with ZR-75 cells is 11.00. Besides, in data set [2], the “PTH T=1-T=0” value is -70 pg/mL and the Final Ca Levels came out at 10.7 mg/dL.
On to `C=C1/C(=C\C=C2/CCC[C@]3(C)[C@@H](C4(CC#CC(C)(C)O)CC4)CC[C@@H]23)C[C@@H](O)C[C@@H]1O` [compound 1, 1,25-dihydroxy-23-yne-20,21,28-cyclopropyl-cholecalciferol], for which the pIC50 in the data set with MCF-7 cells is 9.30.
For the compound `C[C@]12CCC/C(=C\C=C3C[C@@H](O)C[C@H](O)C3)[C@@H]1CC[C@@H]2C1(C/C=C\C(O)(C(F)(F)F)C(F)(F)F)CC1` [compound 6, 1,25-dihydroxy-23-(Z)-ene-26,27-hexafluoro-20,21,28-cyclopropyl-19-norcholecalciferol], the pIC50 in the data set with MCF-7 cells was 10.52; with ZR-75 cells it was 10.00.
As for `C[C@]12CCC/C(=C\C=C3C[C@@H](O)C[C@H](O)C3)[C@@H]1CC[C@@H]2C1(CC#CC(O)(C(F)(F)F)C(F)(F)F)CC1` [Cpd #4, 1,25-dihydroxy-23-yne-26,27-hexafluoro-20,21,28-cyclopropyl-19-norcholecalciferol], in data set [1] (0.005 μg/kg/day by mouth), the “Serum Calcium (6th Week)” value amounted to 8.94 mg/dL, the “Urine Calcium/Creatinine (6th Week)” value stood at 0.60 and the Whole Femur BMD is 0.241 g/cm². The pIC50 in the data set on MCF-7 cells was 10.30. Moreover, the pIC50 with ZR-75 cells is 9.82. Moreover, in data set [2], the “PTH T=1-T=0” value is -137 pg/mL and the Final Ca Levels is 10.1 mg/dL.
On to `C=C1/C(=C\C=C2/CCC[C@]3(C)[C@@H]([C@H](C)CCCC(C)(C)O)CC[C@@H]23)C[C@@H](O)C[C@@H]1O` [1,25-di(OH)-cholecalciferol, 1,25-dihydroxy-cholecalciferol, reference compound], for which the “Serum Calcium (6th Week)” value in data set [1] (0.200 μg/kg/day by mouth, listed as Vit D) is 9.49 mg/dL and 10.65 mg/dL. Besides, the pIC50 was 6.83 in the data set on MCF-7 cells and 7.89 in the data set with ZR-75 cells. In addition, the “PTH T=1-T=0” value in data set [2] was -18 pg/mL. Also, in data set [2], the Final Ca Levels is 9.75 mg/dL. Also, the “lower rate of new vertebral fractures compared with elemental calcium 1000 mg/day” value in data set [3] (mild to moderate postmenopausal osteoporosis, 0.25 microgram twice daily, after 3 years) is on record as 3 fold. Also, the tolerability result in data set [3] (overall) is “well tolerated”. Moreover, the steroid-induced bone loss result in data set [3] (patients starting prednisone or prednisolone, 0.5 to 1.0 micrograms/day plus calcium 1000 mg/day, with or without calcitonin) is listed as “prevented steroid-induced bone loss”.
On to `C=C1/C(=C\C=C2/CCC[C@]3(C)[C@@H](C4(C/C=C\C(O)(C(F)(F)F)C(F)(F)F)CC4)CC[C@@H]23)C[C@@H](O)C[C@@H]1O` [compound 5, 1,25-dihydroxy-23-(Z)-ene-26,27-hexafluoro-20,21,28-cyclopropyl-cholecalciferol], for which the pIC50 in the data set with MCF-7 cells is 10.52; with ZR-75 cells, 10.00.
For `CC(C)(O)C#CCC1([C@H]2CC[C@H]3/C(=C/C=C4C[C@@H](O)C[C@H](O)C4)CCC[C@]23C)CC1` [compound 2, 1,25-dihydroxy-23-yne-20,21,28-cyclopropyl-19-nor-cholecalciferol] the same measures were 9.52 and 9.05.
